Data: ChEMBL document CHEMBL5674860, “Optimized Dual-Glo Assay to identify co-culture-induced drug vulnerabilities in 3D CRC models” (2024)

What was measured:
Format in all cases: functional, Homo sapiens
Design in all cases: dose or concentration left out as unconfirmed
Colon cancer organoid [1] = assay: Optimized Dual-Glo assay to identify co-culture induced drug vulnerabilities using donated chemical probes and chemogenomics kinase set in O06 CRC organoid and F06 CAF mono and co-culture. […] Cell viability is reported both mono and co-culture models.
Colon cancer organoid [2] = assay: Optimized Dual-Glo assay to identify co-culture induced drug vulnerabilities using donated chemical probes and chemogenomics kinase set in O14 CRC organoid and F14 CAF mono and co-culture. […] Cell viability is reported both mono and co-culture models.
Colon cancer organoid [3] = assay: Optimized Dual-Glo assay to identify co-culture induced drug vulnerabilities using donated chemical probes and chemogenomics kinase set in O20 CRC organoid and F20 CAF mono and co-culture. […] Cell viability is reported both mono and co-culture models.
[4] = Culture type Co-Culture, Transduced with Lucferase2-P2A-EGFP lentivirus
[5] = Culture type Co-Culture, Transduced with Renilla-dsRed lentivirus
[6] = Culture type Mono-Culture, Transduced with Lucferase2-P2A-EGFP lentivirus
[7] = Culture type Mono-Culture, Transduced with Renilla-dsRed lentivirus

Row | SMILES | Cell Viability (Colon cancer organoid [1]; [4]) [%] | Cell Viability (Colon cancer organoid [1]; [5]) [%] | Cell Viability (Colon cancer organoid [1]; [6]) [%] | Cell Viability (Colon cancer organoid [1]; [7]) [%] | Cell Viability (Colon cancer organoid [2]; [4]) [%] | Cell Viability (Colon cancer organoid [2]; [5]) [%] | Cell Viability (Colon cancer organoid [2]; [6]) [%] | Cell Viability (Colon cancer organoid [2]; [7]) [%] | Cell Viability (Colon cancer organoid [3]; [4]) [%] | Cell Viability (Colon cancer organoid [3]; [5]) [%] | Cell Viability (Colon cancer organoid [3]; [6]) [%] | Cell Viability (Colon cancer organoid [3]; [7]) [%]
1 | CC(C)(O)[C@H](F)CN1Cc2cc(NC(=O)c3cnn4cccnc34)c(N3CCOCC3)cc2C1=O | 120.796 | 89.8431 | 75.3772 | 93.3836 | 134.835 | 74.5238 | 106.331 | 78.3332 | 123.767 | 88.3121 | 99.4921 | 83.0265
2 | Cc1c(N2CCNCC2)nc2ccc(Br)cc2c1C(=O)NC[C@H](CCC(=O)O)c1ccccc1Cl [BAY-403] | 78.4474 | 70.4581 | 95.2254 | 113.122 | 128.287 | 83.5136 | 111.567 | 88.9346 | 119.673 | 79.2483 | 97.0551 | 97.643
3 | CN1CCN(Cc2ccc(Nc3ncc(Cl)c(Nc4ccccc4S(=O)(=O)N(C)C)n3)cc2)CC1 [DUBERMATINIB] | 0.5937 | 0.7151 | 0.6913 | 2.891 | 0.6117 | 1.021 | 1.267 | 1.499 | 1.045 | 16.1981 | 1.218 | 12.0094
4 | Cc1cc(NC(=O)c2cccc(S(F)(F)(F)(F)F)c2)cc(-n2ccn3nc(-c4cccnc4)cc23)c1 [BAY-309] | 84.4525 | 147.367 | 49.1708 | 77.7093 | 98.153 | 84.8781 | 155.954 | 76.6739 | 122.672 | 127.793 | 129.399 | 97.9255
5 | CC(=O)c1cc(-c2cc(C(=O)NC3CC3)ccc2C)c2ncccn12 | 95.4153 | 118.795 | 58.2009 | 132.016 | 100.15 | 126.848 | 106.827 | 109.242 | 68.1057 | 121.421 | 109.894 | 113.039
6 | CCOc1ccc(S(=O)(=O)Nc2ccc(Cl)cc2C#Cc2cnc(C(=O)[O-])cc2OC)c2ncccc12.[K+] | 117.764 | 113.31 | 103.254 | 83.0425 | 128.517 | 94.7736 | 96.9622 | 95.2003 | 109.87 | 117.362 | 101.299 | 92.0089
7 | Cc1sc2c(c1C)C(c1ccc(Cl)cc1)=N[C@@H](CC(=O)NCCCCCCCCNC(=O)COc1cccc3c1C(=O)N(C1CCC(=O)NC1=O)C3=O)c1nnc(C)n1-2 (stereo partly specified) | 5.4511 | 19.3995 | 5.5885 | 11.9931 | 2.938 | 15.8723 | 4.49 | 21.4216 | 2.002 | 74.9854 | 1.636 | 22.3036
8 | CCC(=O)N1CCOc2c(cc(-c3ccc(OC)c(OC)c3)cc2OCC2CCCN(C)C2)C1 (stereo unspecified) | 113.999 | 135.091 | 45.0129 | 100.645 | 85.4363 | 159.816 | 85.7096 | 112.054 | 85.3108 | 123.175 | 108.47 | 90.76
9 | O=C(O)CNC(=O)c1c(O)c2ccccc2n(Cc2ccccc2)c1=O | 145.736 | 124.036 | 103.118 | 94.3602 | 94.5212 | 101.447 | 96.8462 | 89.4149 | 96.4355 | 149.859 | 78.6397 | 102.057
10 | Cc1cc(F)c(C(=O)Nc2cccc(-c3nncn3C(C)C)n2)cc1-n1cnc(C2CC2)c1 [SELONSERTIB] | 89.6649 | 105.018 | 105.834 | 92.1767 | 131.466 | 127.666 | 127.2 | 83.0493 | 141.674 | 89.2485 | 97.5113 | 87.9562
11 | Cc1nc(N2CC[C@H](O)C2)ncc1-c1cc(C(F)(F)F)cc2[nH]ncc12 | 111.861 | 161.788 | 77.8362 | 94.0965 | 63.6905 | 138.157 | 56.4353 | 87.4633 | 47.2711 | 153.575 | 55.4223 | 100.169
12 | CN(C)CCCOc1ccc(-c2cc(NCCCn3cccn3)nc(S(C)(=O)=O)n2)cc1 | 126.468 | 129.443 | 108.628 | 116.281 | 98.5657 | 111.103 | 109.089 | 94.6282 | 144.301 | 126.832 | 110.606 | 92.2355
13 | O=C(CCCCCCNC(=O)c1cnc(N(c2ccccc2)c2ccccc2)nc1)NO [RICOLINOSTAT] | 80.064 | 143.43 | 66.4985 | 158.366 | 162.049 | 119.991 | 164.32 | 101.457 | 158.742 | 130.22 | 89.6658 | 107.525
14 | CO[C@H]1CNC[C@@H](OCC2CCC(F)(F)CC2)[C@@H]1Nc1ncc(-c2cncc(C)c2)c2cc(C)c(=O)[nH]c12 | 95.0954 | 138.476 | 98.6849 | 128.396 | 95.7966 | 88.7201 | 127.619 | 100.555 | 171.391 | 122.949 | 125.457 | 102.001
15 | Cc1nc(NC(=O)N2CCC[C@H]2C(N)=O)sc1-c1ccnc(C(C)(C)C(F)(F)F)c1 [ALPELISIB] | 74.6278 | 68.5217 | 72.4718 | 69.5837 | 44.356 | 105.185 | 47.7974 | 68.4414 | 70.7946 | 99.8659 | 21.7931 | 78.1697
16 | CN1C[C@H](Nc2cnn(C)c(=O)c2Br)C[C@H](c2ccccc2)C1 | 52.3497 | 181.327 | 101.698 | 109.538 | 72.8555 | 143.992 | 98.7271 | 111.977 | 159.897 | 106.068 | 104.311 | 120.493
17 | CN(C)C/C=C/C(=O)Nc1cc2c(Nc3ccc(F)c(Cl)c3)ncnc2cc1O[C@H]1CCOC1.O=C(O)/C=C\C(=O)O.O=C(O)/C=C\C(=O)O [AFATINIB DIMALEATE] | 26.678 | 56.3894 | 6.9021 | 44.0198 | 29.2387 | 54.1607 | 5.719 | 44.7132 | 37.5755 | 73.123 | 10.3381 | 31.0858
18 | C[C@H](c1ccc(F)cc1)N(Cc1cccc(C(=O)O)c1)C(=O)c1cnc2ccccc2c1 [PF-05105679] | 133.625 | 152.049 | 106.722 | 91.4083 | 81.4426 | 118.111 | 74.3119 | 99.7573 | 143.937 | 111.508 | 109.64 | 98.1235
